The values that follow come from patent US12195490B2, “STRAD-binding agents and uses thereof” (The Regents of the University of California, priority 2020, dated 2025).

The test system of the assay is ACHN cell line. As to the kind of experiment: drug screen of the SelleckChem kinase inhibitor library with and without 5 uM SU-329, Cell-Titer Glo after 5 days. Format: cell-based. The conditions noted are these: kinase inhibitor at 200 nM with and without 5 uM SU329; ACHN cell line; 5 days; Cell-Titer Glo.

The molecule `O=c1cc(N2CCOCC2)oc2c(-c3ccccc3)cccc12` [LY294002] registered a log2fc of 0.5337.
Take `CC(C)(C)c1cnc(CSc2cnc(NC(=O)C3CCNCC3)s2)o1` [SNS-032 (BMS-387032)]: the log2fc is on record as −1.028.
The value for `Cc1csc(-c2nnc(Nc3ccc(Oc4ncccc4-c4ccnc(N)n4)cc3)c3ccccc23)c1` [AMG-900] was 0.883; that for `CCN(CC)CCNC(=O)c1c(C)[nH]c(/C=C2\C(=O)Nc3ccc(F)cc32)c1C` [Sunitinib Malate, sunitinib, reference compound] was −0.1249.
The value for `Cc1[nH]c(/C=C2\C(=O)Nc3ccc(S(=O)(=O)Cc4c(Cl)cccc4Cl)cc32)c(C)c1C(=O)N1CCC[C@@H]1CN1CCCC1` [PHA-665752] was 0.1781.
The value for `CN1CCN(c2cccc(Nc3nc4c(-c5ccc(S(C)(=O)=O)cc5)cccn4n3)c2)CC1` [CEP-33779] was −0.6078; that for `CC(C)CCN1c2nc(Nc3cc(F)c(O)c(F)c3)ncc2N(C)C(=O)C1C` (stereo not drawn) [BI-D1870] was 0.7499; that for `O=C1NC(=O)C(=Cc2ccc(-c3ccc(F)cc3)o2)S1` (stereo in doubt) [CAY10505] was 0.3828.
On to `COc1cc2nccc(Oc3ccc(NC(=O)NC4CC4)c(Cl)c3)c2cc1C(N)=O` [Lenvatinib (E7080)], for which the log2fc was −0.314.
The value for `CCS(=O)(=O)Nc1ccc2c(c1)/C(=C(/Nc1ccc(CN3CCCCC3)cc1)c1ccccc1)C(=O)N2` [Hesperadin] was 0.1006; that for `C=CC(=O)Nc1cccc(Oc2nc(Nc3ccc(N4CCN(C)CC4)cc3)ncc2Cl)c1` [WZ3146, reference compound] was 0.05459; that for `Cc1cc(F)c(Nc2ncnc3cc(OCc4ccccc4)ccc23)cc1O.Cl` [ZM 323881 HCl] was 0.1765.
To `COC(=O)c1ccc2c(c1)NC(=O)/C2=C(\Nc1ccc(N(C)C(=O)CN2CCN(C)CC2)cc1)c1ccccc1` [Nintedanib (BIBF 1120)] belongs 0.7859; to `CC(=O)Nc1nc(C)c(-c2ccc(Cl)c(S(=O)(=O)NCCO)c2)s1` [PIK-93], 0.3162; to `CCn1c(=O)c(-c2ccc(-c3cncs3)cc2Cl)cc2cnc(Nc3ccc(N4CCN(C)CC4)cc3)nc21` [FRAX597], −0.0718.
To `CN1CCN(c2ccc3nc(-c4c(N)c5c(F)cccc5[nH]c4=O)[nH]c3c2)CC1` [Dovitinib (TKI-258, CHIR-258)] belongs 0.4746.
Consider `CCCNC(=O)Nc1ccc(Oc2ncnc3cc(OC)c(OC)cc23)cc1Cl` [KRN 633], for which the log2fc stood at 0.02524.
To `N#Cc1c(Oc2ccc(F)c(NC(=O)Cc3cccc(C(F)(F)F)c3)c2)ccc2nc(NC(=O)C3CC3)sc12` [TAK-632] belongs 0.4732; to `OCCn1cc(-c2cnc3nnn(Cc4ccc5ncccc5c4)c3n2)cn1` [PF-04217903], 0.2177; to `Cc1cc([C@@H](C)Nc2ccccc2C(=O)O)c2nc(N3CCOCC3)cc(=O)n2c1` [AZD6482], −0.1098.
`Oc1ccc(Nc2nc(-c3ccc(Cl)cc3)cs2)cc1` [SKI II] came in with a log2fc of 0.06564.
With `CN1CCCN(C(=O)c2cccc(-c3ccc(/C=C4/C(=O)Nc5ccc(Cl)cc54)o3)c2)CC1.Cl` [CX-6258 HCl], the log2fc is recorded as −0.355.
The value for `COc1cccc2cc(-c3nc([C@H]4CC[C@H](C(=O)O)CC4)n4ncnc(N)c34)[nH]c12` [OSI-027] was −1.494.
To `NCC(=O)Nc1ccc(-n2nc(C(F)(F)F)cc2-c2ccc3c(ccc4ccccc43)c2)cc1` [OSU-03012 (AR-12)] belongs 0.7911.
The value for `Cc1cc(NC(=O)c2cccc(NC(=O)/C=C/CN(C)C)c2)ccc1Nc1nccc(-c2cccnc2)n1` [JNK-IN-8] was 0.5696.
For the molecule `Cc1cc(C)c(/C=C2\C(=O)Nc3ccccc32)[nH]1` [Semaxanib (SU5416)], the log2fc is given as −0.8277.
The value for `CN(c1ncccc1CNc1nc(Nc2ccc3c(c2)CC(=O)N3)ncc1C(F)(F)F)S(C)(=O)=O` [PF-562271] was 0.8258.
To `O=C(c1ccc(Nc2nccc(-c3cc4ccccc4s3)n2)cc1)N1CCC(N2CCCC2)CC1` [IKK-16 (IKK Inhibitor VII)] belongs −0.1183.
The value for `Cc1nc(Nc2n[nH]c3c2CN(C(=O)N[C@H](CN(C)C)c2ccccc2)C3(C)C)c2sccc2n1` [PF-3758309] was 0.8283; that for `CC(C)(C)c1cc(C=C(C#N)C#N)cc(Br)c1O` [AG-1024] was −0.3636; that for `CC(C)(C)c1cc(NC(=O)Nc2ccc(-c3cn4c(n3)sc3cc(OCCN5CCOCC5)ccc34)cc2)no1` [Quizartinib (AC220)] was 0.278.
With `Cc1ccc(NC(=O)c2cccc(C(C)(C)C#N)c2)cc1Nc1ccc2ncn(C)c(=O)c2c1` [AZ 628], the log2fc is reported as 0.4319.
The value for `O=C(Nc1c[nH]nc1-c1nc2ccc(CN3CCOCC3)cc2[nH]1)NC1CC1` [AT9283] was 2.163; that for `CO[C@H]1C[C@@H]2CC[C@@H](C)[C@@](O)(O2)C(=O)C(=O)N2CCCC[C@H]2C(=O)O[C@H]([C@H](C)C[C@@H]2CC[C@@H](OC(=O)C(C)(CO)CO)[C@H](OC)C2)CC(=O)[C@H](C)/C=C(\C)[C@@H](O)[C@@H](OC)C(=O)[C@H](C)C[C@H](C)/C=C/C=C/C=C/1C` [Temsirolimus (CCI-779, NSC 683864)] was −1.524; that for `CCc1cncnc1N1CCN(Cc2nc3ccc(C(F)(F)F)cc3[nH]2)CC1` [PF-4708671] was 0.5187.
As for `N#Cc1c(NC(=O)c2cccc3ccccc23)sc2c1CCCC2` [JNK Inhibitor IX], the log2fc is 0.1814.
Turning to `Cc1cc2c(F)c(Oc3ncnn4cc(OC[C@@H](C)OC(=O)[C@H](C)N)c(C)c34)ccc2[nH]1` [Brivanib Alaninate (BMS-582664)], the log2fc amounted to 0.04321.
The value for `O=C(/C=C/c1ccc2ccccc2n1)c1ccncc1` [PFK15] was −0.9312.
To `O=C1NCCc2[nH]c(-c3ccncc3)cc21` [PHA-767491] belongs −0.9629; to `NC(=O)c1ncn([C@@H]2O[C@H](CO)[C@@H](O)[C@H]2O)c1N` [AICAR (Acadesine)], 0.7164; to `Cn1cc(C2=C(c3cn(C4CCN(Cc5ccccn5)CC4)c4ccccc34)C(=O)NC2=O)c2ccccc21` [Enzastaurin (LY317615)], 0.5814.
The value for `Cn1cc(C2=C(c3ccc(Cl)cc3Cl)C(=O)NC2=O)c2ccccc21` [SB216763] was 0.4708; that for `O=C(O)c1ccc(-c2c[nH]c3ncc(-c4ccccc4)cc23)cc1C1CCCC1` [GSK650394] was 0.3205.
In turn, `CCS(=O)(=O)c1cccc(-c2cc(C(=O)NC3CCN(C)CC3)c(C)c3[nH]c4ncc(C)cc4c23)c1` [TAK-901] gave a log2fc of 0.2818.
To `NC(=O)c1ccc(N(C(N)=O)c2c(F)cccc2F)nc1-c1ccc(F)cc1F` [VX-702] belongs −0.1168; to `Cl.O=S(=O)(c1cccc2cnccc12)N1CCCNCC1` [Fasudil (HA-1077) HCl], 0.1457.
To `N#C/C(=C(/N)Sc1ccc(N)cc1)c1ccccc1C(F)(F)F` [SL-327] belongs −0.2882.
To `O=C1NC(=O)C(c2cnc3ccccn23)=C1c1cn2c3c(cc(F)cc13)CN(C(=O)N1CCCCC1)CC2` [LY2090314] belongs 1.91.
